Source: patent US20050112059A1, “Enhancement of radiotherapy by an exogenous cardiac glycoside” (Phoenix Biotechnology, Inc., priority 2003, published 2005)

Columns and labels:
PC-3 cells [1] = test: Hoechst 33258 staining of apoptotic cells, fluorescent microscope; format: cell-based, human; conditions: oleandrin plus radiation versus any other treated or control population
Source text: In addition, the control cells and the experimental cells were stained with a fluorescent dye, Hoechst 33258, that binds to fragmented DNA. The PC-3 cells were observed under a fluorescent microscope.

caspase-3 = test: Caspase-3 activation by western blotting; format: cell-based, human
Protocol: To determine whether caspase-3 activation was involved in the oleandrin-induced enhancement of PC-3 cell radioresponse, cells were treated with 5 Gy or 0.05 μg/ml oleandrin or a combination of both treatments for 24 hours. Cells were assayed for caspase-3 activation 24 hours after treatment using western blotting. cells were lysed in a buffer containing 50 mM Tris-HCl (pH 8), 450 mM NaCl, 1% triton X-100, 5 mM EDTA, 1% (v/v) of protease inhibitor cocktail, and 1% (v/v) phosphatase inhibitor cocktails I and II (Sigma, St. Louis, Mo.). Protein ([…] per lane) was separated by sodium dodecyl sulfate-polyacrylamide gel electrophoresis (“SDS-PAGE”) and transferred to a polyvinylidene difluoride (“PVDF”) membrane (Bio-Rad Laboratories, Hercules, Calif.). The membrane was blocked by 5% non-fat dry milk in Tris-buffered saline and 0.1% Tween-20 (“TBS-T”) and before incubation with a designated primary antibody (Pharmingen, San Diego, Calif.). After washing the membrane with TBS-T, it was incubated in secondary antibody and the immunoreaction was visualized using an ECL western blotting kit (Amersham Corp., Arlington Heights, Ill.).

PC-3 cells [2] = test: Apoptosis by TUNEL assay and flow cytometry; format: cell-based, human
Protocol: PC-3 cells were incubated with 0.05 μg/ml oleandrin for 24 hours, irradiated at 2 Gy, or both. The control cells were untreated. The medium containing oleandrin was removed, fresh medium was added, and 24 hours later the apoptotic index was determined.
Apoptosis was determined by staining and flow cytometry analysis. The terminal deoxynucleotidyltransferase (“TdT”) dUTP nick end labeling (“TUNEL”) assay to identify the DNA fragmentation (APO-DIRECT kit, Pharmingen, San Diego, Calif.) was performed according to the manufacturer's instructions. Briefly, cells (2×10^6) were fixed in 1% paraformaldehyde and washed in PBS. Cells were suspended in 70% ethanol and stored at −20° C. until use. Re-suspended cells were stained in a solution containing TdT and FITC-dUTP and incubated overnight at room temperature in the dark. They were then rinsed and re-suspended in 0.5 ml propidium iodide/RNase A solution and analyzed by flow cytometry.

NF-kB = conditions: cited from earlier work
PC-3 cells [3] = test: Clonogenic cell survival with caspase-3 inhibitor, oleandrin and radiation; format: cell-based, human; conditions: for Survival of cells (%) following radiation of 2 Gy / Survival of cells (%) following radiation of 6 Gy / Survival of cells (%) following radiation of O Gy: oleandrin 0.05 μg/ml 24 hours, ZDEVD-FMK 100 μM added 2 hours before oleandrin; for Survival of cells (%) following radiation of 2 Gy: control 74.6 ± 3.4; for Survival of cells (%) following radiation of 6 Gy: control 7.8 ± 0.6; for Survival of cells (%) following radiation of O Gy: no radiation, percent control, mean±SE
Protocol: PC-3 cells were incubated with 0.05 μg/ml oleandrin for 24 hours before being irradiated with 2 or 6 Gy. […] Clonogenic cell survival was then determined. Colonies were counted and the survival of cells (percent control) was calculated. Data are presented as mean±SE from three experiments.

PC-3 cells [4] = test: Effect of duration of oleandrin exposure on radiosensitivity (colony survival, 3 Gy); format: cell-based, human
Protocol: The magnitude of radiosensitization depended on duration of exposure of cells to oleandrin prior to radiation. PC-3 cells were incubated in the presence of 0.05 μg/ml oleandrin for 1-24 hours. After oleandrin treatment, cells were irradiated with 3 Gy radiation and plated as in Example 1. Colonies were counted after 12 days and percent surviving fractions were plotted. […] Cell survival after 3 Gy radiation only was 50% compared to 30% after 3 Gy radiation plus 0.05 μg/ml oleandrin. Values shown are means±SE for three independent experiments. The average survival levels were fit by least squares regression using a linear quadratic model.

PC-3 cells [5] = test: Colony forming ability of PC-3 cells after oleandrin and graded γ-irradiation; format: cell-based, human
Protocol: The human prostate carcinoma cell line PC-3 was obtained from the American Type Culture Collection and maintained in RPMI 1640 medium supplemented with 10% fetal calf serum, 10,000 U/ml of penicillin-streptomycin, and 2 mM L-glutamine. Cells were grown as monolayers in 75-cm^2 flasks and maintained in a humidified 5% CO2/95% air atmosphere at 37.8° C.
[…] graded doses (2, 4 or 6 Gy) of γ-rays using a ^137Cs source (3.7 Gy/min) and assayed for colony forming ability by replating them in specified numbers into 100-mm dishes containing drug-free media. After 12 days of incubation, cells were stained with 0.5% crystal violet in absolute ethanol, and colonies with more than 50 cells were counted. The average survival levels were fit by least squares regression using a linear quadratic model. Survival curves were constructed with normalized values for the cytotoxicity induced by oleandrin alone. Oleandrin by itself reduced plating efficiency from the 95% control value to 21%.
The untreated control samples are represented by the open circles and the oleandrin treated samples are represented by the filled circles. Values shown are the means±SE for three independent experiments. The enhancement factor at the cell survival fraction of 0.1 was 1.32.

murine tumor cell lines = conditions: cited from earlier work
human tumor cell lines = conditions: cited from earlier work
[6] = test system: A549 human lung adenocarcinoma cells; conditions: cited from earlier work
[7] = test system: normal human lung fibroblasts; conditions: cited from earlier work
[8] = test system: human tumor cells including squamous cell carcinoma and melanoma; conditions: squamous cell carcinoma and melanoma among types; cited from earlier work

CO[C@H]1C[C@H](O[C@H]2CC[C@@]3(C)[C@H](CC[C@@H]4[C@@H]3CC[C@]3(C)[C@@H](C5=CC(=O)OC5)[C@@H](OC(C)=O)C[C@]43O)C2)O[C@@H](C)[C@@H]1O [Oleandrin, oleandrin]
apoptotic cells observed (Hoechst 33258) (PC-3 cells [1]): More apoptotic cells | activation of caspase-3 (caspase-3; 0.05 μg/ml oleandrin alone, 24 hours, assayed 24 hours after treatment): effective | level of caspase-3 activation (caspase-3; 0.05 μg/ml oleandrin combined with 5 Gy): higher | percentage of apoptotic cells (PC-3 cells [2]; 0.05 μg/ml oleandrin 24 hours alone, measured 24 hours later, control 2.1±0.4): 63.5±6.1% | percentage of apoptotic cells (PC-3 cells [2]; 0.05 μg/ml oleandrin 24 hours plus 2 Gy, 2 Gy alone 8.2±3.4%): 85.8±5.3% | combination effect on apoptosis versus individual treatments (PC-3 cells [2]; oleandrin 0.05 μg/ml plus 2 Gy): more than the additive effects | activation of NF-kB (NF-kB): inhibits activation | Survival of cells (%) following radiation of 2 Gy (PC-3 cells [3]): 55.5 ± 1.9% | Survival of cells (%) following radiation of 6 Gy (PC-3 cells [3]): 3.1 ± 0.8% | Survival of cells (%) following radiation of O Gy (PC-3 cells [3]): 88.9 ± 2.9% | radiosensitizing effect versus duration of exposure (PC-3 cells [4]; 0.05 μg/ml oleandrin 1-24 hours, 3 Gy): increased as the duration of exposure to oleandrin increased up to 24 hours | cell survival (PC-3 cells [4]; 3 Gy radiation plus 0.05 μg/ml oleandrin, exposure 1 hour, 3 Gy only 50%): 30% | cytotoxicity by itself (PC-3 cells [5]; oleandrin 0.025 μg/ml): non-cytotoxic | influence on radiosensitization (PC-3 cells [5]; oleandrin 0.025 μg/ml): no significant influence | enhancement factor at the cell survival fraction of 0.1 (PC-3 cells [5]; oleandrin 0.05 μg/ml 24 hours, then 2, 4 or 6 Gy γ-rays): 1.32 | plating efficiency (PC-3 cells [5]; oleandrin 0.05 μg/ml for 24 hours, by itself (no radiation), control value 95%): 21% | induction of apoptosis (murine tumor cell lines): not in murine tumor cell lines | induction of apoptosis (human tumor cell lines): induces apoptosis

C[C@@H]1O[C@@H](O[C@H]2C[C@@H](O)[C@]3(CO)[C@H]4[C@H](O)C[C@]5(C)[C@@H](C6=CC(=O)OC6)CC[C@]5(O)[C@@H]4CC[C@]3(O)C2)[C@H](O)[C@H](O)[C@H]1O [Ouabain, ouabain]
in vitro radiosensitivity [6]: enhance in vitro radiosensitivity | modification of radioresponse [7]: ineffective | radiosensitization [8]: radiosensitize

ZDEVD-FMK [Z-DEVD-FMK]
Survival of cells (%) following radiation of 2 Gy (PC-3 cells [3]): 77.8 ± 3.2% | Survival of cells (%) following radiation of 6 Gy (PC-3 cells [3]): 8.6 ± 2.1% | effect on oleandrin-induced enhancement of radiation response (PC-3 cells [3]; ZDEVD-FMK 100 μM with oleandrin 0.05 μg/ml): abolished | Survival of cells (%) following radiation of O Gy (PC-3 cells [3]): 97.4 ± 1.7%
